According to US8921372B2, “Inhibitors of hepatitis C virus” (Theravance Biopharma R&D IP, LLC, priority 2010, dated 2014):
Read-outs that look alike come from different tables or passages of the source.

What was measured:
[1] = tested on: HCV genotype 1b replicon cell line (APC144; Huh7 cell background); assay: HCV Genotype 1b Replicon Assay (Renilla luciferase readout); type: cell-based; details: Hepatitis C virus, Huh-7; read-out: Genotype 1b (pEC50 class, HCV genotype 1b replicon assay) (converted)
Source text: Assay 1: HCV Genotype 1b Replicon Assay
The HCV genotype 1b replicon cell line was obtained from Apath LLC (Brooklyn, N.Y.) (APC144; Huh7 cell background). This subgenomic replicon contains the N-terminus of the HCV core protein fused to the neomycin-resistance selectable marker. The EMCV IRES lies downstream and drives expression of humanized Renilla luciferase fused to the non-structural proteins NS3-NS5B. This cell line was used to determine compound potency using the luciferase activity readout as a measurement of compound inhibition of replicon levels.
(§1) Cells were grown at 37° C. in a 5% CO2 humidified incubator in DMEM (Invitrogen) with 10% FBS (HyClone), 1×NEAA (Invitrogen), 1× Pen-Strep (Invitrogen), and 500 μg/mL G418 (Invitrogen). On day 1 of the assay, cells were plated at 10,000 cells/well in white 96-well tissue culture plates (Costar) in 200 μL media lacking G418. Four hours later, once the cells have adhered, the media was removed and replaced with media (no G418) containing dose-responses of test compounds. Compounds were initially diluted in DMSO and then diluted another 200× in media to bring the final DMSO concentration down to 0.5%. The cells were incubated with test compounds for 48 hours. At the end of the incubation period, media and compound were removed from the plates and the luciferase activity was determined using Promega Renilla-Glo reagents.
To analyze the data, the luciferase activity was plotted vs. the compound concentration, and EC50 values were determined from a 4-parameter robust fit model with the GraphPad Prism software package (GraphPad Software, Inc., San Diego, Calif.). Results are expressed as the negative decadic logarithm of the EC50 value, pEC50.
Test compounds having a higher pEC50 value in this assay show greater inhibition of HCV genotype 1b replication.

[2] = tested on: HCV genotype 1a replicon cell line (APC89; Huh7.5 cell background); assay: HCV Genotype 1a Replicon Assay (NS3-specific protease activity readout); type: cell-based; details: Hepatitis C virus
Experimental: Assay 2: HCV Genotype 1a Replicon Assay
The HCV genotype 1a replicon cell line was obtained from Apath LLC (APC89; Huh7.5 cell background). This subgenomic replicon contains the N-terminus of the HCV core protein fused to the neomycin-resistance selectable marker. The EMCV IRES lies downstream and drives expression of the non-structural proteins NS3-NS5B. Compound potencies were determined using the NS3-specific protease activity in lysates as a measurement of compound inhibition of replicon levels.
as §1, with “850” for “500”, “15,000” for “10,000”, “black” for “white”, “had” for “have”, “48 or 72” for “48”, “plates.” for “plates and the luciferase activity was determined using Promega Renilla-Glo reagents.”
To determine the NS3-specific protease activity in lysates, the cells were lysed at room temperature in 50 μL/well of 50 mM Hepes pH 7.5, 150 mM NaCl, 15% Glycerol, 0.15% Triton X-100, 10 mM DTT for 20 minutes with shaking. 50 μL of an NS3/4a protease-specific FRET substrate (Anaspec RET S1 Cat#22991) was then added to the wells at a final concentration of 15 μM. The plates were incubated at 37° C. for 20 minutes, which corresponds to a timepoint at which the protease activity is still in the linear phase. Protease activity was determined by measuring fluorescence (Excitation: 340 nm; Emission: 509 nm).
To analyze the data, the fluorescence was plotted vs. the compound concentration, and EC50 values were determined from a 4-parameter robust fit model using GraphPad Prism software.

[3] = 72 hour incubation, read-out: Genotype 1a (pEC50 class, HCV genotype 1a replicon assay) (converted)
[4] = compounds incubated for 48 hours, read-out: Genotype 1a (pEC50 class, HCV genotype 1a replicon assay), * results (converted)

For `CNC(=O)N1C[C@@H](C)N(c2ccc(C(=O)Nc3ccc(-c4ccc(-c5c[nH]c([C@@H]6CCCN6C(=O)[C@@H](NC(=O)OC)C(C)C)n5)cc4)c(OC(F)(F)F)c3)cn2)C[C@@H]1C` [Example 29, ((S)-1-{(S)-2-[4-(4′-{[6-((2R,5S)-2,5-Dimethyl-4-methylcarbamoyl-piperazin-1-yl)-pyridine-3-carbonyl]-amino}-2′-trifluoromethoxy-biphenyl-4-yl)-1H-imidazol-2-yl]-pyrrolidine-1-carbonyl}-2-methyl-propyl)-carbamic acid methyl ester], which EC50 [1] is on record?
The EC50 was less than 0.1 nM.

And the EC50 [2, 3]?
Its EC50 is less than 0.1 nM.

With `COC(=O)N[C@H](C(=O)N1CCC[C@H]1c1nc(-c2ccc(-c3ccc(NC(=O)c4ccc(N5CCN(C(=O)C6CC6)CC5)cc4)cc3F)cc2)c[nH]1)C(C)C` [Example 8, {(S)-1-[(S)-2-(4-{4′-[4-(4-cycloproanecarbonyl-piperazin-1-yl)-benzoylamino]-2′-fluoro-biphenyl-4-yl}-1H-imidazol-2-yl)-pyrrolidine-1-carbonyl]-2-methyl-propyl}-carbamic acid methyl ester] as the compound, how does the EC50 [1] read?
The EC50 was less than 0.1 nM.

And the EC50 [2, 3]?
Its EC50 is 1 to 10 nM.

Which results are given for `COC(=O)N[C@H](C(=O)N1CCC[C@H]1c1nc(-c2ccc(-c3ccc(NC(=O)c4ccc(N5C[C@H](C)N(C(=O)c6c[nH]cn6)C[C@H]5C)nc4)cc3OC(F)(F)F)cc2)c[nH]1)C(C)C` [Example 32]?
EC50 [1]: < 0.1 nM; EC50 [2, 3]: < 0.1 nM

`COC(=O)N[C@H](C(=O)N1CCC[C@H]1c1nc(-c2ccc(-c3ccc(NC(=O)c4ccc(N5CCN(C(=O)[C@H]6CC6(C)C)C[C@H]5C)nc4)cc3F)cc2)c[nH]1)C(C)C` [Example 45, [(S)-1-((S)-2-{5-[4′-({6-[(R)-4-((S)-2,2-Dimethyl-cyclopropanecarbonyl)-2-methyl-piperazin-1-yl]-pyridine-3-carbonyl}-amino)-2′-fluoro-biphenyl-4-yl]-1H-imidazol-2-yl}-pyrrolidine-1-carbonyl)-2-methyl-propyl]-carbamic acid methyl ester] was tested. Which EC50 [1] did it give?
Its EC50 is less than 0.1 nM.

What about the EC50 [2, 3] of the same compound?
The EC50 was less than 0.1 nM.

How did the EC50 [1] turn out when `COC(=O)N[C@H](C(=O)N1CCC[C@H]1c1nc(-c2ccc(-c3ccc(NC(=O)c4ccc(N5CCN(C(=O)C6CC6)C[C@H]5C)nc4)cc3OC(F)(F)F)cc2)c[nH]1)C(C)C` [Example 28] was run?
The EC50 was less than 0.1 nM.

What about the EC50 [2, 3] of the same compound?
The EC50 was 0.1 to 1 nM.

With `COC(=O)N[C@H](C(=O)N1CCC[C@H]1c1nc(-c2ccc(-c3c(F)cc(NC(=O)c4ccc(N5CCN(C(=O)c6c[nH]cn6)C[C@H]5C)nc4)cc3F)cc2)c[nH]1)C(C)C` [Example 44] as the compound, how does the EC50 [1] read?
Its EC50 is less than 0.1 nM.

What about the EC50 [2, 3] of the same compound?
Its EC50 is 0.1 to 1 nM.

What does the source list for `CNC(=O)N1CCN(c2ccc(C(=O)Nc3cc(OC(F)(F)F)c(-c4ccc(-c5c[nH]c([C@@H]6CCCN6C(=O)[C@@H](NC(=O)OC)C(C)C)n5)cc4)cc3F)cn2)[C@H](C)C1` [Example 53, ((S)-1-{(S)-2-[4-(5′-Fluoro-4′-{[6-OR)-2-methyl-4-methylcarbamoyl-piperazin-1-yl)-pyridine-3-carbonyl]-amino}-2′-trifluoromethoxy-biphenyl-4-yl)-1H-imidazol-2-yl]-pyrrolidine-1-carbonyl}-2-methyl-propyl)-carbamic acid methyl ester]?
EC50 [1]: < 0.1 nM; EC50 [2, 3]: < 0.1 nM

Which results are given for `COC(=O)N[C@H](C(=O)N1CCC[C@H]1c1nc(-c2ccc(-c3cc(F)c(NC(=O)c4ccc(N5CCN(C(=O)[C@]6(C)CCCN6C(=O)NC(C)C)C[C@H]5C)nc4)cc3OC(F)(F)F)cc2)c[nH]1)C(C)C` [Example 27-43]?
EC50 [1]: < 0.1 nM; EC50 [2, 3]: < 0.1 nM

For `COC(=O)N[C@H](C(=O)N1CCC[C@H]1c1nc(-c2ccc(-c3ccc(NC(=O)c4ccc(N5CCN(C(=O)C6CC6)C[C@H]5C)nc4)cc3F)cc2)c[nH]1)C(C)C` [Example 46], which EC50 [1] is on record?
Its EC50 is less than 0.1 nM.

And the EC50 [2, 3]?
The EC50 was 0.1 to 1 nM.

Which results are given for `COC(=O)N[C@H](C(=O)N1CCC[C@H]1c1nc(-c2ccc(-c3c(F)cc(NC(=O)c4ccc(N5CCN(C(=O)C6CC6)C[C@H]5C)nc4)cc3F)cc2)c[nH]1)C(C)C` [Example 42]?
EC50 [1]: < 0.1 nM; EC50 [2, 3]: 0.1 to 1 nM

Which results are given for `COC(=O)N[C@H](C(=O)N1CCC[C@H]1c1nc(-c2ccc(-c3cc(F)c(NC(=O)c4ccc(N5CCN(C(=O)[C@]6(C)CCCN6C(=O)CN(C)C)C[C@H]5C)nc4)cc3OC(F)(F)F)cc2)c[nH]1)C(C)C` [Example 27-50]?
EC50 [1]: < 0.1 nM; EC50 [2, 3]: < 0.1 nM

Which EC50 [1] does the source give for `COC(=O)N[C@H](C(=O)N1CCC[C@H]1c1nc(-c2ccc(-c3ccc(NC(=O)c4ccc(N5CCN(C(=O)C(C)(C)C)CC5)cc4)cc3)cc2)c[nH]1)C(C)C` [Example 2, ((S)-1-{(S)-2-[4-(4′-{4-[4-(2,2-Dimethyl-propionyl)-piperazin-1-yl]-benzoylamino}-biphenyl-4-yl)-1H-imidazol-2-yl]-pyrrolidine-1-carbonyl}-2-methyl-propyl)-carbamic acid methyl ester] here?
The EC50 was less than 0.1 nM.

What about the EC50 [2, 4] of the same compound?
Its EC50 is 1 to 10 nM.

What does the source list for `CNC(=O)N1CCN(c2ccc(C(=O)Nc3ccc(-c4ccc(-c5nc([C@@H]6CCCN6C(=O)[C@@H](NC(=O)OC)C(C)C)[nH]c5Cl)cc4)cc3)cc2)CC1` [Example 11, {(S)-1-[(S)-2-(5-Chloro-4-{4′-[4-(4-methylcarbamoyl-piperazin-1-yl)-benzoylamino]-biphenyl-4-yl}-1H-imidazol-2-yl)-pyrrolidine-1-carbonyl]-2-methyl-propyl}-carbamic acid methyl ester]?
EC50 [1]: < 0.1 nM; EC50 [2, 4]: 0.1 to 1 nM

With `COC(=O)N[C@H](C(=O)N1CCC[C@H]1c1nc(-c2ccc(-c3ccc(NC(=O)c4ccc(N5CCN(C(=O)OC(C)(C)C)CC5)cc4)cc3)cc2)c[nH]1)C(C)C` [Example 3, 4-[4-(4′-{2-[(S)-1-((S)-2-Methoxycarbonylamino-3-methyl-butyryl)-pyrrolidin-2-yl]-1H-imidazol-4-yl}-biphenyl-4-ylcarbamoyl)-phenyl]-piperazine-1-carboxylic acid tert-butyl ester] as the compound, how does the EC50 [1] read?
Its EC50 is less than 0.1 nM.

What about the EC50 [2, 4] of the same compound?
Its EC50 is 1 to 10 nM.

For `CNC(=O)N1C[C@@H](C)N(c2ccc(C(=O)Nc3cc(C(F)(F)F)c(-c4ccc(-c5c[nH]c([C@@H]6CCCN6C(=O)[C@@H](NC(=O)OC)C(C)C)n5)cc4)cc3Cl)cn2)C[C@@H]1C` [Example 64], which EC50 [1] is on record?
Its EC50 is less than 0.1 nM.

What about the EC50 [2, 3] of the same compound?
The EC50 was less than 0.1 nM.

`COC(=O)N[C@H](C(=O)N1CCC[C@H]1c1nc(-c2ccc(-c3ccc(NC(=O)c4ccc(N5CCN(C(=O)[C@H]6CC6(C)C)C[C@@H]5C)nc4)cc3)cc2)c[nH]1)C(C)C` [Example 13, [(S)-1-((S)-2-{4-[4′-({6-[(S)-4-((S)-2,2-Dimethyl-cyclopropane-carbonyl)-2-methyl-piperazin-1-yl]-pyridine-3-carbonyl}-amino)-biphenyl-4-yl]-1H-imidazol-2-yl}-pyrrolidine-1-carbonyl)-2-methyl-propyl]-carbamic acid methyl ester] was tested. Which EC50 [1] did it give?
The EC50 was less than 0.1 nM.

What about the EC50 [2, 3] of the same compound?
Its EC50 is less than 0.1 nM.

With `COC(=O)N[C@H](C(=O)N1CCC[C@H]1c1nc(-c2ccc(-c3cc(Cl)c(NC(=O)c4ccc(N5CCN(C(=O)[C@]6(C)CCCN6C(=O)CN(C)C)C[C@H]5C)nc4)cc3OC(F)(F)F)cc2)c[nH]1)C(C)C` [Example 27-72] as the compound, how does the EC50 [1] read?
The EC50 was less than 0.1 nM.

What about the EC50 [2, 3] of the same compound?
Its EC50 is less than 0.1 nM.

Which results are given for `CNC(=O)N1C[C@@H](C)N(c2ccc(C(=O)Nc3cc(OC(F)(F)F)c(-c4ccc(-c5c[nH]c([C@@H]6CCCN6C(=O)[C@@H](NC(=O)OC)C(C)C)n5)cc4)cc3F)cn2)C[C@@H]1C` [Example 58]?
EC50 [1]: < 0.1 nM; EC50 [2, 3]: < 0.1 nM
